The Ki is the dissociation constant of the complex between target and ligand, obtained from inhibition or displacement. Usually Kd stands for the concentration at which binding is half-saturated.

One series has as its target T1, RARα (Homo sapiens, UniProt P10276).
T1 sequence (P10276 1-462): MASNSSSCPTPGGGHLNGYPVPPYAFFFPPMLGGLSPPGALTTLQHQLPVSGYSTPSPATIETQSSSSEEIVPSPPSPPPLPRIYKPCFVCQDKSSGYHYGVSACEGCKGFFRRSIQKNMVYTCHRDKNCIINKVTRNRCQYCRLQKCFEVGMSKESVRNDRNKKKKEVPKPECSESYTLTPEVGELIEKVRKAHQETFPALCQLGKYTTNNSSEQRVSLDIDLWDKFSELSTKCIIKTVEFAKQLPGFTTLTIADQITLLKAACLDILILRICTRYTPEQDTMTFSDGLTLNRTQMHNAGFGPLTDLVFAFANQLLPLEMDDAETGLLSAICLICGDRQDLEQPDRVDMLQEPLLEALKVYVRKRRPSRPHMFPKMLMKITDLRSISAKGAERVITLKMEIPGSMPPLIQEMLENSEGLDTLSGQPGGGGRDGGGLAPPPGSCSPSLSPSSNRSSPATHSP
The series can be described thus: ligand binding assay, RARα. To be noted: for Ki: read-out: RAR Bind. Ki α; for Kd: Table 9 (Formula F), read-out: RAR α Kd. From the text:
Specifically, one such assay is a chimeric receptor transactivation assay which tests for agonist-like activity in the R RAPE and RAR7 receptor subtypes, and which is based on work published by Feigner, P. L. and Holm, M (1989) Focus, 112 is described in detail in U.S. Pat. No. 5,455,265. The specification of U.S. Pat. No. 5,455,265 is hereby expressly incorporated by reference. A holoreceptor transactivation assay and a ligand binding assay which measure the antagonist/agonist like activity of the compounds of the invention, or their ability to bind to the several retinoid receptor subtypes, respectively, are described in published PCT Application No. WO WO93/11755 (particularly on pages 30-33 and 37-41) published on Jun. 24, 1993, the specification of which is also incorporated herein by reference. A detailed experimental procedure for holoreceptor transactivations has been described by Heyman et al. Cell 68, 397-406, (1992); Allegretto et al. J. Biol. Chem. 268, 26625-26633, and Mangelsdorf et al. The Retinoids: Biology, Chemistry and Medicine, pp 319-349, Raven Press Ltd., New York, which are expressly incorporated herein by reference. The results obtained in this assay are expressed in EC50 numbers, as they are also in the chimeric receptor transactivation assay. The results of the ligand binding assay are expressed in Ki numbers. (See Cheng et al. Biochemical Pharmacology Vol. 22 pp 3099-3108, expressly incorporated herein by reference.)
Generally speaking, in the tables disclosing the results of transactivation and binding assays the numbers in parentheses indicate efficacy as a percentage compared to the standard compound, (2E,4E,1′S,2′S)-3-methyl-5-[2′-methyl-2′-(5,5,8,8-tetramethyl-5,6,7,8-tetrahydro-naphthalen-2-yl)cyclopropyl]-penta-2,4-dienoic acid and the other numbers indicate the measured EC50 and K; in nanomolar concentration.

The test system of a further series is ob/ob mice. The series can be described thus: serum glucose, triglycerides and T4 in diabetic mice, oral gavage in corn oil daily for seven days. To be noted: 50 mg/kg, corn oil vehicle (Table 7). It counts as in vivo.

A value given as a limit tells only on which side of the number the result lay.

For `CCOc1cc2c(cc1\C(CC)=C(F)/C=C/C(C)=C/C(=O)O)C(C(C)(C)C)=CCC2(C)C` [Compound A-83, (2E,4E,6E)-7-(8-tert-Butyl-3-ethoxy-5,5-dimethyl-5,6-dihydronaphthalen-2-yl)-6-fluoro-3-methyl-nona-2,4,6-trienoic acid], on RARα, the Ki was 394 nM.

`CCOc1cc2c(cc1\C(=C/C=C/C(C)=C/C(=O)O)CC)C(C)=CCC2(C)C` [Compound A-16, 7-(3-Ethoxy-5,5,8-trimethyl-5,6-dihydronaphthalen-2-yl)-3-methyl-nona-2E,4E,6Z-trienoic acid]: in the series with ob/ob mice, the “Glucose Day 3, 3 h” value is 297 mg/dL; the “Glucose Day 6, 3 h” value amounted to 267 mg/dL; the “T4 Day 7” value stood at 4.2 µg/dL; the “Triglycerides Day 3, 3 h” value turned out to be 121 mg/dL. In the series with ob/ob mice (day 0 (pre-treatment)), the “Glucose Day 0” value turned out to be 443 mg/dL and the “Triglycerides Day 0” value was 160 mg/dL. Further, the Ki on RARα stood at 578 nM.

On to `COc1cc2c(cc1\C(C)=C(F)/C=C/C(C)=C/C(=O)O)C(C(C)(C)C)=CC(C)(C)O2` [Compound 122, 7-(4-tert-Butyl-7-methoxy-2,2-dimethyl-2H-chromen-6-yl)-6-fluoro-3-methyl-octa-2E,4E,6E-trienoic acid], for which the Ki on RARα is 800 nM.

As for `CCOc1c(\C(CC)=C(F)/C=C/C(C)=C/C(=O)O)cc2c(c1Cl)OC(C)(C)C=C2C(C)C` [Compound 173], the Ki on RARα is 102 nM.

As for `CCOc1c(\C(=C/C=C/C(C)=C/C(=O)O)CC)cc2c(c1Cl)OC(C)(C)C=C2C(C)C` [Compound 51], the Ki on RARα was 422 nM.

For the molecule `CCOc1cc2c(cc1\C(CC)=C(F)/C=C/C(C)=C/C(=O)O)C(C)=CC(C)(C)O2` [Compound 132, 7-(7-Ethoxy-2,2,4-trimethyl-2H-chromen-6-yl)-6-fluoro-3-methyl-nona-2E,4E,6E-trienoic acid], at RARα, the Ki was determined as 148 nM.

As to `CCOc1cc2c(cc1\C(=C/C=C/C(C)=C/C(=O)O)CC)C(C)=CC(C)(C)O2` [Compound 46, 7-(7-Ethoxy-2,2,4-trimethyl-2H-chromen-6-yl)-3-methyl-nona-2E,4E,6Z-trienoic acid], on RARα, the inhibitory constant (Ki) came to 623 nM.

With `CCOc1c(\C(C)=C(F)/C=C/C(C)=C/C(=O)O)cc2c(c1Br)C(C)(C)CC=C2C(C)C` [Compound A-169, (2E,4E,6E)-7-(4-Bromo-3-ethoxy-8-isopropyl-5,5-dimethyl-5,6-dihydro-naphthalen-2-yl)-6-fluoro-3-methyl-octa-2.4,6-trienoic acid], at RARα, the Kd was found to be 70 nM.

As to `CCCOc1cc2c(cc1\C(C)=C(F)/C=C/C(C)=C/C(=O)O)C(C(C)(C)C)=CCC2(C)C` [Compound A-84, (2E,4E,6E)-6-Fluoro-3-(4,$dimethyl-6-n-propoxy-1-tert-butyl-3,4-dihydronaphthalen-7-yl)-3-methyl-2,4,6-octatrienoic acid], on RARα, the Ki is 1100 nM.

`CCOc1cc2c(cc1\C(=C/C=C/C(C)=C/C(=O)O)CC)C(C(C)(C)C)=CCC2(C)C` [Compound A-18, 7-(8-tert-butyl-3-ethyoxy-5,5-dimethyl-5,6-dihydronaphthalen-2-yl)-3-methyl-nona-2E,4E,6Z-trienoic acid]: the Ki at RARα stood at 442 nM.

As for `CC/C(=C/C=C/C(C)=C/C(=O)O)c1cc2c(cc1OC)OC(C)(C)C=C2C(C)C` [Compound 44, 7-(4-Isopropyl-7-methoxy-22-dimethyl-2H-chromen-6-yl)-3-methyl-nona-2E,4E,6Z-trienoic acid], the Ki at RARα was determined as 215 nM.

Regarding `CCOc1c(\C(C)=C(F)/C=C/C(C)=C/C(=O)O)cc2c(c1Cl)C(C)(C)CC=C2C(C)C` [Compound A-177, (2E,4E,6E)-7-(4-Chloro-3-ethoxy-8-isopropyl-5,5-dimethyl-5,6-dihydronaphthalen-2-yl)6-fluoro-3-methyl-octa-2,4,6-trienoic acid], the Kd on RARα is 60 nM.

As for `CCOc1cc2c(cc1\C(C)=C(F)/C=C/C(C)=C/C(=O)O)C(C)=CCC2(C)C`, the Ki on RARα was determined as 261 nM.

In the case of `CC(/C=C/C(F)=C(/C)c1cc2c(cc1OCC1CC1)C(C)(C)CC=C2C(C)C)=C\C(=O)O` [Compound A-81, (2E,4E,6E)-6-Fluoro-3-(4-dimethyl-6-(cyclopropyl)methoxy-1-isopropyl-3,4-dihydronaphthalen-7-yl)-3-methyl-2,4.6-octa-trienoic acid], the Ki at RARα was 592 nM.

With `CCOc1cc2c(cc1\C(C)=C(F)/C=C/C(C)=C/C(=O)O)C(CC)=CC(C)(C)O2` [Compound 123, 7-(7-Ethoxy-4-ethyl-2,2-dimethyl-2H-chromen-6-yl)-6-fluoro-3-methyl-octa-2E,4E,6E-trienoic acid], the Ki on RARα was above 10000 nM.

For `COc1cc2c(cc1\C(C)=C(F)/C=C/C(C)=C/C(=O)O)C(C(C)C)=CC(C)(C)O2` [Compound 121, (2E,4E,6E)-6-Fluoro-7-(4-isopropyl-7-methoxy-2,2-dimethyl-2H-chromen-6-yl)-3-methyl-octa-2,4,6-trienoic acid], on RARα, the Ki was determined as 692 nM.

For the molecule `CCC1=CC(C)(C)Oc2cc(OC)c(\C(C)=C(F)/C=C/C(C)=C/C(=O)O)cc21` [Compound 120, 7-(4Ethyl-7-methoxy-2,2-dimethyl-2H-chromen-6-yl)-6-fluoro-3-methyl-octa-2E,4E,6E-trienoic acid], the inhibitory constant (Ki) at RARα was determined as 4100 nM.

For the molecule `COc1c(\C(C)=C/C=C/C(C)=C/C(=O)O)cc2c(c1Cl)OC(C)(C)C=C2C(C)C` [Compound 49, 7-(8-Chloro-4-isopropyl-7-methoxy-2,2-dimethyl-2H-chromen-6-y)-3-methyl-octa-2E,4E,6Z-trienoic acid], the Ki at RARα was 1000 nM.

`COc1c(\C(C)=C(F)/C=C/C(C)=C/C(=O)O)cc2c(c1Cl)OC(C)(C)C=C2C(C)C` [Compound 170, 7-(8-Chloro-4-isopropyl-7-methoxy-2,2-dimethyl-2H-chromen-6-yl)-6-fluoro-3-methyl-octa-2E,4E,6E-trienoic acid]: the Ki on RARα is 3400 nM.

Take `CC/C(=C(F)/C=C/C(C)=C/C(=O)O)c1cc2c(cc1OC)OC(C)(C)C=C2C(C)(C)C` [Compound 131, 7-(4-tert-Butyl-7-methoxy-2,2-dimethyl-2H-chromen-6-yl)-6-fluoro-3-methyl-nona-2E,4E,6E-trienoic acid]: the Ki at RARα was 837 nM.

As to `CCCOc1cc2c(cc1\C(C)=C(F)/C=C/C(C)=C/C(=O)O)C(C(C)C)=CCC2(C)C` [Compound A-80], the Ki at RARα stood at 841 nM.

For `CCC1=CC(C)(C)Oc2cc(OC)c(\C(C)=C/C=C/C(C)=C/C(=O)O)cc21` [Compound 42, 7-(4-Ethyl-7-methoxy-2,2-dimethyl-2H-chromen-6-yl)-3-methyl-octa-2E,4E,6Z-trienoic acid], at RARα, the Ki amounted to 8900 nM.

Consider `CCOc1cc2c(cc1\C(C)=C(F)/C=C/C(C)=C/C(=O)O)C(C(C)(C)C)=CCC2(C)C` [Compound A-82, (2E,4E,6E)-6-Fluoro-3-(4,4-dimethyl-6-ethoxy-1-tert-butyl-3,4 dihydronaphthalen-7-yl)-3-methyl-2,4,6-octa-trienoic acid], for which the Ki on RARα was determined as 387 nM.

For the molecule `CC(/C=C/C(F)=C(/C)c1cc2c(c(Cl)c1OC(C)C)OC(C)(C)C=C2C(C)C)=C\C(=O)O` [Compound 174], the inhibitory constant (Ki) on RARα stood at 532 nM.

Regarding `CCOc1cc2c(cc1\C(C)=C/C=C/C(C)=C/C(=O)O)C(C(C)(C)C)=CCC2(C)C` [Compound A-17, 7-(8-tert-Butyl-3-ethyloxy-5,5-dimethyl-5,6-dihydronaphthalen-2-yl)-3-methyl-octa-2E,4E,6Z-trienoic acid], the Ki at RARα came out at 861 nM.

Values taken from patent publication US6887896B1, “7-[(7-Alkoxy)-chrom-3-en-6-yl]-heptatrienoic acid and 7-[(3-alkoxy)-5,6-dihydronaphthalen-2-yl]-heptatrienoic acid derivatives having serum glucose reducing activity” (Allergan, Inc., priority 2003, dated 2005).
